Test results: patent US20230085307A1, “PYRIDAZINONE COMPOUND AND HERBICIDE” (NISSAN CHEMICAL CORPORATION, priority 2019, published 2023)

Columns and labels:
blackgrass [1] = test: Test Example 4: herbicidal effect by soil treatment (Table 19, symbol J); assay type: in vivo, blackgrass (Alopecurus myosuroides)
In short: (§1)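 Emulsion of test compound, water-diluted to predetermined amount, sprayed on soil after sowing (seed depth ~1.5 cm, sterilized diluvial soil). Greenhouse, 25–30° C. Effect graded at three weeks post-spray.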

barnyard grass [2] = test: Test Example 5: herbicidal effect by foliage application, plastic box (Table 20, symbol H); assay type: in vivo, barnyard grass (Echinochloa crus-galli); details: foliage application
In short: (§2)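 Post-emergence foliar test in sterilized diluvial soil. Compound applied as water-diluted emulsion at a predetermined rate to 14-day-old plants; evaluation at three weeks.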

lambsquarters [3] = test: Test Example 5: herbicidal effect by foliage application, plastic box (Table 20, symbol O); assay type: in vivo, lambsquarters (Chenopodium album); details: foliage application
In short: as §2

redroot pigweed [4] = test: Test Example 4: herbicidal effect by soil treatment (Table 19, symbol N); assay type: in vivo, redroot pigweed (Amaranthus retroflexus)
In short: as §1

barnyard grass [5] = test: Test Example 4: herbicidal effect by soil treatment (Table 19, symbol H); assay type: in vivo, barnyard grass (Echinochloa crus-galli)
In short: as §1

chickweed [6] = test: Test Example 5: herbicidal effect by foliage application, plastic box (Table 20, symbol P); assay type: in vivo, common chickweed (Stellaria media); details: foliage application, 320 g/ha, three weeks after application
In short: as §2

wild oat [7] = test: Test Example 5: herbicidal effect by foliage application, plastic box (Table 20, symbol I); assay type: in vivo, wild oat (Avena fatua); details: foliage application
In short: as §2

Italian ryegrass [8] = test: Test Example 5: herbicidal effect by foliage application, plastic box (Table 20, symbol K); assay type: in vivo, Italian ryegrass (Lolium multiflorum); details: foliage application
In short: as §2

southern crabgrass [9] = test: Test Example 5: herbicidal effect by foliage application, plastic box (Table 20, symbol F); assay type: in vivo, southern crabgrass (Digitaria ciliaris); details: foliage application
In short: as §2

Chinese sprangletop = test: Test Example 3: herbicidal effect by foliage application, Wagner pot (Table 18, symbol D); assay type: in vivo, chinese sprangletop (Leptochloa chinensis)
In short: (§3)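 Plants were sown in alluvial soil held under 0.1–0.5 cm standing water and grown 14 days in a greenhouse at 25–30 °C. An emulsifiable formulation, water-diluted to the set dose, was then sprayed onto the foliage, and effects were scored three weeks later using previously defined criteria.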

false cleavers [10] = test: Test Example 5: herbicidal effect by foliage application, plastic box (Table 20, symbol Q); assay type: in vivo, false cleavers (Galium spurium); details: foliage application
In short: as §2

rice flat sedge = test: Test Example 3: herbicidal effect by foliage application, Wagner pot (Table 18, symbol E); assay type: in vivo, rice flat sedge (Cyperus iria)
In short: as §3

wild oat [11] = test: Test Example 4: herbicidal effect by soil treatment (Table 19, symbol I); assay type: in vivo, wild oat (Avena fatua)
In short: as §1

green foxtail [12] = test: Test Example 5: herbicidal effect by foliage application, plastic box (Table 20, symbol G); assay type: in vivo, green foxtail (Setaria viridis); details: foliage application
In short: as §2

redroot pigweed [13] = test: Test Example 5: herbicidal effect by foliage application, plastic box (Table 20, symbol N); assay type: in vivo, redroot pigweed (Amaranthus retroflexus); details: foliage application, 320 g/ha, three weeks after application
In short: as §2

persian speedwell [14] = test: Test Example 4: herbicidal effect by soil treatment (Table 19, symbol R); assay type: in vivo, Persian speedwell (Veronica persica)
In short: as §1

lambsquarters [15] = test: Test Example 4: herbicidal effect by soil treatment (Table 19, symbol O); assay type: in vivo, lambsquarters (Chenopodium album)
In short: as §1

false cleavers [16] = test: Test Example 4: herbicidal effect by soil treatment (Table 19, symbol Q); assay type: in vivo, false cleavers (Galium spurium)
In short: as §1

southern crabgrass [17] = test: Test Example 4: herbicidal effect by soil treatment (Table 19, symbol F); assay type: in vivo, southern crabgrass (Digitaria ciliaris)
In short: as §1

Italian ryegrass [18] = test: Test Example 4: herbicidal effect by soil treatment (Table 19, symbol K); assay type: in vivo, Italian ryegrass (Lolium multiflorum)
In short: as §1

velvetleaf [19] = test: Test Example 4: herbicidal effect by soil treatment (Table 19, symbol M); assay type: in vivo, velvetleaf (Abutilon theophrasti)
In short: as §1

chickweed [20] = test: Test Example 4: herbicidal effect by soil treatment (Table 19, symbol P); assay type: in vivo, common chickweed (Stellaria media)
In short: as §1

velvetleaf [21] = test: Test Example 5: herbicidal effect by foliage application, plastic box (Table 20, symbol M); assay type: in vivo, velvetleaf (Abutilon theophrasti); details: foliage application
In short: as §2

blackgrass [22] = test: Test Example 5: herbicidal effect by foliage application, plastic box (Table 20, symbol J); assay type: in vivo, blackgrass (Alopecurus myosuroides); details: foliage application
In short: as §2

windgrass [23] = test: Test Example 4: herbicidal effect by soil treatment (Table 19, symbol L); assay type: in vivo, windgrass (Apera spica-venti)
In short: as §1

green foxtail [24] = test: Test Example 4: herbicidal effect by soil treatment (Table 19, symbol G); assay type: in vivo, green foxtail (Setaria viridis)
In short: as §1

barnyard grass [25] = test: Test Example 3: herbicidal effect by foliage application, Wagner pot (Table 18, symbol H); assay type: in vivo, barnyard grass (Echinochloa crus-galli)
In short: as §3

windgrass [26] = test: Test Example 5: herbicidal effect by foliage application, plastic box (Table 20, symbol L); assay type: in vivo, windgrass (Apera spica-venti); details: foliage application
In short: as §2

persian speedwell [27] = test: Test Example 5: herbicidal effect by foliage application, plastic box (Table 20, symbol R); assay type: in vivo, Persian speedwell (Veronica persica); details: foliage application, 283 g/ha, 3 weeks after application
In short: as §2

[28] = amount of applied herbicide 320 g/ha
[29] = 320 g/ha, three weeks after application
[30] = 283 g/ha, 3 weeks after application

`CCCC(=O)Oc1c(C)nn(C)c(=O)c1-c1c(-c2ccc3c(c2)OCCO3)sc2cc(Cl)ccc12` [3-048] was tested, and the “J: blackgrass, herbicidal effect grade” value (blackgrass [1]; [28]) was 0 (Herbicidal rate of 5% or less (almost no effect)), the “H: barnyard grass, herbicidal effect grade” value (barnyard grass [2]; [29]) was 0 (Herbicidal rate of 5% or less (almost no effect)) and the “O: lambsquarters, herbicidal effect grade” value (lambsquarters [3]; [29]) was 3 (Herbicidal rate of 40% or more and less than 70%). The “N: redroot pigweed, herbicidal effect grade” value (redroot pigweed [4]; [28]) was 0 (Herbicidal rate of 5% or less (almost no effect)), the “H: barnyard grass, herbicidal effect grade” value (barnyard grass [5]; [28]) was 0 (Herbicidal rate of 5% or less (almost no effect)) and the “P: chickweed, herbicidal effect grade” value (chickweed [6]) was 5 (Herbicidal rate of 90% or more (almost completely withered)). For the same compound, the “I: wild oat, herbicidal effect grade” value (wild oat [7]; [29]) was 0 (Herbicidal rate of 5% or less (almost no effect)), the “K: Italian ryegrass, herbicidal effect grade” value (Italian ryegrass [8]; [29]) was 0 (Herbicidal rate of 5% or less (almost no effect)) and the “F: southern crabgrass, herbicidal effect grade” value (southern crabgrass [9]; [29]) was 0 (Herbicidal rate of 5% or less (almost no effect)). For the same compound, the “herbicidal effect on Chinese sprangletop (D)” value (Chinese sprangletop; 320 g/ha) was 0 (Herbicidal rate of 5% or less (almost no effect)), the “Q: false cleavers, herbicidal effect grade” value (false cleavers [10]; [29]) was 4 (Herbicidal rate of 70% or more and less than 90%) and the “herbicidal effect on rice flat sedge (E)” value (rice flat sedge; 320 g/ha) was 2 (Herbicidal rate of 20% or more and less than 40%). For the same compound, the “I: wild oat, herbicidal effect grade” value (wild oat [11]; [28]) was 0 (Herbicidal rate of 5% or less (almost no effect)), the “G: green foxtail, herbicidal effect grade” value (green foxtail [12]; [29]) was 0 (Herbicidal rate of 5% or less (almost no effect)) and the “N: redroot pigweed, herbicidal effect grade” value (redroot pigweed [13]) was 3 (Herbicidal rate of 40% or more and less than 70%). For the same compound, the “R: persian speedwell, herbicidal effect grade” value (persian speedwell [14]; [28]) was 0 (Herbicidal rate of 5% or less (almost no effect)), the “O: lambsquarters, herbicidal effect grade” value (lambsquarters [15]; [28]) was 0 (Herbicidal rate of 5% or less (almost no effect)) and the “Q: false cleavers, herbicidal effect grade” value (false cleavers [16]; [28]) was 4 (Herbicidal rate of 70% or more and less than 90%). The “F: southern crabgrass, herbicidal effect grade” value (southern crabgrass [17]; [28]) was 0 (Herbicidal rate of 5% or less (almost no effect)), the “K: Italian ryegrass, herbicidal effect grade” value (Italian ryegrass [18]; [28]) was 0 (Herbicidal rate of 5% or less (almost no effect)) and the “M: velvetleaf, herbicidal effect grade” value (velvetleaf [19]; [28]) was 0 (Herbicidal rate of 5% or less (almost no effect)). For the same compound, the “P: chickweed, herbicidal effect grade” value (chickweed [20]; [28]) was 1 (Herbicidal rate of 5% or more and less than 20%), the “M: velvetleaf, herbicidal effect grade” value (velvetleaf [21]; [29]) was 1 (Herbicidal rate of 5% or more and less than 20%) and the “J: blackgrass, herbicidal effect grade” value (blackgrass [22]; [29]) was 0 (Herbicidal rate of 5% or less (almost no effect)). For the same compound, the “L: windgrass, herbicidal effect grade” value (windgrass [23]; [28]) was 0 (Herbicidal rate of 5% or less (almost no effect)), the “G: green foxtail, herbicidal effect grade” value (green foxtail [24]; [28]) was 0 (Herbicidal rate of 5% or less (almost no effect)) and the “herbicidal effect on barnyard grass (H)” value (barnyard grass [25]; 320 g/ha) was 4 (Herbicidal rate of 70% or more and less than 90%). The “L: windgrass, herbicidal effect grade” value (windgrass [26]; [29]) was 0 (Herbicidal rate of 5% or less (almost no effect)).

With `CCCC(=O)Oc1c(C)nn(C)c(=O)c1-c1c(-c2ccccc2OC)sc2ccc(F)cc12` [2-025] the “herbicidal effect rating, J: blackgrass” value (blackgrass [1]; 283 g/ha) was 0 (Herbicidal rate of 5% or less (almost no effect)), the “effect on barnyard grass (H)” value (barnyard grass [2]; [30]) was 3 (Herbicidal rate of 40% or more and less than 70%) and the “effect on lambsquarters (O)” value (lambsquarters [3]; [30]) was 3 (Herbicidal rate of 40% or more and less than 70%). For the same compound, the “herbicidal effect rating, N: redroot pigweed” value (redroot pigweed [4]; 283 g/ha) was 3 (Herbicidal rate of 40% or more and less than 70%), the “herbicidal effect rating, H: barnyard grass” value (barnyard grass [5]; 283 g/ha) was 3 (Herbicidal rate of 40% or more and less than 70%) and the “effect on wild oat (I)” value (wild oat [7]; [30]) was 3 (Herbicidal rate of 40% or more and less than 70%). For the same compound, the “effect on Italian ryegrass (K)” value (Italian ryegrass [8]; [30]) was 1 (Herbicidal rate of 5% or more and less than 20%), the “effect on persian speedwell (R)” value (persian speedwell [27]) was 4 (Herbicidal rate of 70% or more and less than 90%) and the “effect on southern crabgrass (F)” value (southern crabgrass [9]; [30]) was 4 (Herbicidal rate of 70% or more and less than 90%). For the same compound, the “herbicidal effect on D (Chinese sprangletop), rating 0-5” value (Chinese sprangletop; 283 g/ha) was 0 (Herbicidal rate of 5% or less (almost no effect)), the “effect on false cleavers (Q)” value (false cleavers [10]; [30]) was 4 (Herbicidal rate of 70% or more and less than 90%) and the “herbicidal effect on E (rice flat sedge), rating 0-5” value (rice flat sedge; 283 g/ha) was 4 (Herbicidal rate of 70% or more and less than 90%). For the same compound, the “herbicidal effect rating, I: wild oat” value (wild oat [11]; 283 g/ha) was 3 (Herbicidal rate of 40% or more and less than 70%), the “effect on green foxtail (G)” value (green foxtail [12]; [30]) was 4 (Herbicidal rate of 70% or more and less than 90%) and the “herbicidal effect rating, R: persian speedwell” value (persian speedwell [14]; 283 g/ha) was 3 (Herbicidal rate of 40% or more and less than 70%). For the same compound, the “herbicidal effect rating, O: lambsquarters” value (lambsquarters [15]; 283 g/ha) was 4 (Herbicidal rate of 70% or more and less than 90%), the “herbicidal effect rating, Q: false cleavers” value (false cleavers [16]; 283 g/ha) was 4 (Herbicidal rate of 70% or more and less than 90%) and the “herbicidal effect rating, F: southern crabgrass” value (southern crabgrass [17]; 283 g/ha) was 3 (Herbicidal rate of 40% or more and less than 70%). The “herbicidal effect rating, K: Italian ryegrass” value (Italian ryegrass [18]; 283 g/ha) was 0 (Herbicidal rate of 5% or less (almost no effect)), the “herbicidal effect rating, M: velvetleaf” value (velvetleaf [19]; 283 g/ha) was 2 (Herbicidal rate of 20% or more and less than 40%) and the “herbicidal effect rating, P: chickweed” value (chickweed [20]; 283 g/ha) was 4 (Herbicidal rate of 70% or more and less than 90%). For the same compound, the “effect on velvetleaf (M)” value (velvetleaf [21]; [30]) was 5 (Herbicidal rate of 90% or more (almost completely withered)), the “effect on blackgrass (J)” value (blackgrass [22]; [30]) was 0 (Herbicidal rate of 5% or less (almost no effect)) and the “herbicidal effect rating, L: windgrass” value (windgrass [23]; 283 g/ha) was 0 (Herbicidal rate of 5% or less (almost no effect)). For the same compound, the “herbicidal effect rating, G: green foxtail” value (green foxtail [24]; 283 g/ha) was 4 (Herbicidal rate of 70% or more and less than 90%), the “herbicidal effect on H (barnyard grass), rating 0-5” value (barnyard grass [25]; 283 g/ha) was 4 (Herbicidal rate of 70% or more and less than 90%) and the “effect on windgrass (L)” value (windgrass [26]; [30]) was 1 (Herbicidal rate of 5% or more and less than 20%).
